Test results from US6350757B1, “Beta-carboline compounds” (Les Laboratoires Servier, priority 1999, dated 2002).

Key:
[1] = biological target: T1, 5-HT2C receptors (Rattus norvegicus, UniProt P08909); experiment: Penile erection test in the rat, erection induced by Ro 60-0175; type: in vivo; conditions: for ED50: rat, sc, read-out: ID50 (inhibitory dose50) for inhibition of penile erections induced by Ro 60-0175
T1 construct: Male rats of the Wistar line (Iffa-Credo, France); from tissue; host or cells: whole animal: male Wistar rat (in vivo)
T1 sequence (P08909 33-460): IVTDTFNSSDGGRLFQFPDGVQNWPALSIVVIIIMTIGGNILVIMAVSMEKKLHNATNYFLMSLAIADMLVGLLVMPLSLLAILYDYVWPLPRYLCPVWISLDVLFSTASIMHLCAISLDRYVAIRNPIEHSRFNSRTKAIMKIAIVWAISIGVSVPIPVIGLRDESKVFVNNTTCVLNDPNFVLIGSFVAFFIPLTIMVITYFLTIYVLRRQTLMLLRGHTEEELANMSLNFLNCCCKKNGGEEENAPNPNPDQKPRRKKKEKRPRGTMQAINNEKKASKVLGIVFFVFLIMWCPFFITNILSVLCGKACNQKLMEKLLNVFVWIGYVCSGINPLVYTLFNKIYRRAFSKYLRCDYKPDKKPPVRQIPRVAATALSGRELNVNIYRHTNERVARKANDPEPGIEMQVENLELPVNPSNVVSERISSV
Procedure: Penile Erection Test in the Rat, with Erection Induced by Ro 60-0175 (1.25 mg/kg, s.c.)
This test (Eur. J. Pharma., 1997, 325, 9-12) enables evaluation of the capacity of pharmacological agents to inhibit penile erections induced by the administration of Ro 60-0175, a selective 5-HT2C agonist. Inhibition is thus predictive of an antagonist activity in respect of 5-HT2C receptors. Male rats of the Wistar line (Iffa-Credo, France), weighing 120-140 g on the day of the experiment, are placed individually into plexiglass observation boxes (7.5×18×30 cm) having just been administered the product or its carrier. Thirty minutes later, the animals are administered Ro 60-0175 (1.25 mg/kg, s.c.) and the number of erections achieved in the course of the following 30 minutes is counted.

Structure (SMILES) | melting point | ED50 [1] | other results
COC(=O)C1(C2NCCc3c2[nH]c2ccc(Cl)cc32)CCC1.Cl (stereo not drawn) | 232 to 233 °C | – | –
CCOC(=O)C1(C2NCCc3c2[nH]c2ccc(Cl)cc32)CCC1.Cl (stereo not drawn) [Example 1, Ethyl 1-(6-chloro-2,3,4,9-tetrahydro-1H-β-carbolin-1-yl)cyclobutanecarboxylate Hydrochloride] | – | 0.9 mg/kg | –
CCOC(=O)C1(C2NCCc3c2[nH]c2cc(Cl)c(Cl)cc32)CCC1.Cl (stereo not drawn) [Example 6, Ethyl 1-(6,7-dichloro-2,3,4,9-tetrahydro-1H-β-carbolin-1-yl)cyclobutanecarboxylate Hydrochloride] | – | 0.9 mg/kg | –
CCOC(=O)C1(C2NCCc3c2[nH]c2ccc(OC)cc32)CCC1.Cl (stereo not drawn) [Example 7, Ethyl 1-(6-methoxy-2,3,4,9-tetrahydro-1H-β-carbolin-1-yl)cyclobutanecarboxylate Hydrochloride] | – | 1.1 mg/kg | –
CCOC(=O)C1(C2NCCc3c2[nH]c2ccc(Cl)c(Cl)c32)CCC1.Cl (stereo not drawn) [Example 18, Ethyl 1-(5,6-dichloro-2,3,4,9-tetrahydro-1H-β-carbolin-1-yl)cylobutanecarboxylate Hydrochloride] | – | – | ID50 (inhibitory dose50) for inhibition of penile erections induced by Ro 60-0175 ([1]; s.c., male Wistar rats, product given 30 min before Ro 60-0175 (1.25 mg/kg, s.c.), erections counted over following 30 min): 0.5 mg/kg
CCOC(=O)C1(C2c3[nH]c4ccc(Cl)cc4c3CCN2C(C)=O)CCC1 (stereo not drawn) [Example 79, Ethyl 1-(2-acetyl-6-chloro-2,3,4,9-tetrahydro-1H-β-carbolin-1-yl)cyclobutanecarboxylate] | 218 to 219 °C | – | –
